Reference: the supplement of paper PMC10307832

Key:
Assay in all cases: relative viability (nuclei count vs DMSO), 5 days (fraction); higher = more cells survive
CUDC-101 + AZD7762 = compound: C#Cc1cccc(Nc2ncnc3cc(OC)c(OCCCCCCC(=O)NO)cc23)c1 [CUDC-101] + NC(=O)Nc1cc(-c2cccc(F)c2)sc1C(=O)N[C@H]1CCCNC1 [AZD7762] (partner 0.2 µM)
Method in brief: (§1)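 Relative viability is defined as nuclei in treated wells over nuclei in vehicle wells. Duplicate plates were run and medians reported. Lung cancer cell lines in 1536-well plates were dosed by pin tool one day after seeding, with one drug or with a fixed anchor-drug dose plus five library-drug doses (not always all listed) in √10 steps, and nuclei were counted after 5 days.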

NVP-TAE684 + Phenformin = compound: COc1cc(N2CCC(N3CCN(C)CC3)CC2)ccc1Nc1ncc(Cl)c(Nc2ccccc2S(=O)(=O)C(C)C)n1 [NVP-TAE684] + N=C(N)NC(=N)NCCc1ccccc1 [Phenformin] (partner 250 µM)
Method in brief: as §1

Vandetanib + Foretinib = compound: COc1cc2/c(=N/c3ccc(Br)cc3F)nc[nH]c2cc1OCC1CCN(C)CC1 [Vandetanib] + COc1cc2c(Oc3ccc(NC(=O)C4(C(=O)Nc5ccc(F)cc5)CC4)cc3F)ccnc2cc1OCCCN1CCOCC1 [Foretinib] (partner 0.25 µM)
Method in brief: as §1

Vandetanib + Olaparib = compound: COc1cc2/c(=N/c3ccc(Br)cc3F)nc[nH]c2cc1OCC1CCN(C)CC1 [Vandetanib] + O=C(c1cc(Cc2n[nH]c(=O)c3ccccc23)ccc1F)N1CCN(C(=O)C2CC2)CC1 [Olaparib] (partner 8 µM)
Method in brief: as §1

Cell Line | relative viability (CUDC-101 + AZD7762; first compound 0.01 µM) | relative viability (CUDC-101 + AZD7762; first compound 0.03162 µM) | relative viability (CUDC-101 + AZD7762; first compound 0.1 µM) | relative viability (CUDC-101 + AZD7762; first compound 0.3162 µM) | relative viability (CUDC-101 + AZD7762; first compound 1 µM) | relative viability (NVP-TAE684 + Phenformin; first compound 0.2 µM) | relative viability (NVP-TAE684 + Phenformin; first compound 0.6325 µM) | relative viability (NVP-TAE684 + Phenformin; first compound 2 µM) | relative viability (Vandetanib + Foretinib; first compound 0.02 µM) | relative viability (Vandetanib + Foretinib; first compound 0.06325 µM) | relative viability (Vandetanib + Foretinib; first compound 0.2 µM) | relative viability (Vandetanib + Foretinib; first compound 0.6325 µM) | relative viability (Vandetanib + Foretinib; first compound 2 µM) | relative viability (Vandetanib + Olaparib; first compound 0.02 µM) | relative viability (Vandetanib + Olaparib; first compound 0.06325 µM) | relative viability (Vandetanib + Olaparib; first compound 0.2 µM) | relative viability (Vandetanib + Olaparib; first compound 0.6325 µM) | relative viability (Vandetanib + Olaparib; first compound 2 µM)
NCI-H838 | 0.939 | 0.907 | 0.94 | 0.952 | 0.888 | 0.468 | 0.395 | 0.193 | 1.08 | 1.01 | 0.282 | 1.06 | 1.05 | 0.773 | 0.769 | 0.776 | 0.764 | 0.74
H3255 | 1.01 | 0.721 | 0.546 | 0.556 | 0.259 | 0.348 | 0.397 | 0.453 | 0.904 | 0.824 | 0.858 | 0.689 | 0.345 | 0.516 | 0.518 | 0.594 | 0.509 | 0.27
HCC-78 | 0.66 | 0.531 | 0.603 | 0.355 | 0.323 | 0.658 | 0.442 | 0.422 | 0.546 | 0.606 | 0.524 | 0.57 | 0.432 | 0.823 | 0.756 | 0.748 | 0.913 | 0.703
EMC-BAC-2 | 1.08 | 1.09 | 1.06 | 0.947 | 0.443 | 0.402 | 0.464 | 0.319 | 0.996 | 0.934 | 0.307 | 0.965 | 0.958 | 0.509 | 0.478 | 0.498 | 0.492 | 0.531
NCI-H2170 | 1.07 | 0.839 | 0.819 | 0.892 | 0.723 | 0.404 | 0.364 | 0.358 | 1.04 | 0.57 | 1.06 | 0.978 | 1.03 | 0.639 | 0.615 | 0.546 | 0.609 | 0.663
HCC-827 | 0.206 | 0.145 | 0.13 | 0.117 | 0.113 | 0.377 | 0.41 | 0.372 | 1.07 | 1 | 0.706 | 0.296 | 0.169 | 0.629 | 0.653 | 0.627 | 0.309 | 0.152
ChaGo-K-1 | 0.92 | 0.913 | 0.937 | 0.841 | 0.732 | 0.533 | 0.457 | 0.339 | 0.958 | 0.962 | 0.939 | 0.936 | 0.905 | 0.415 | 0.427 | 0.161 | 0.411 | 0.438
LXF-289 | 1.08 | 1.13 | 1.02 | 1.07 | 0.811 | 0.555 | 0.52 | 0.443 | 1.01 | 0.954 | 0.978 | 0.968 | 0.937 | 1.01 | 1.05 | 0.682 | 1 | 1
NCI-H2342 | 0.507 | 0.459 | 0.51 | 0.407 | 0.353 | 0.532 | 0.614 | 0.361 | 1.08 | 1.01 | 1.14 | 1.17 | 0.923 | 0.482 | 0.41 | 0.477 | 0.415 | 0.438
HOP-62 | 0.61 | 0.448 | 0.447 | 0.424 | 0.294 | 0.545 | 0.734 | 0.788 | 1.04 | 1.02 | 0.562 | 1.11 | 1.02 | 0.51 | 0.397 | 0.265 | 0.373 | 0.447
LCLC-103H | 0.674 | 0.739 | 0.761 | 0.877 | 0.675 | 0.297 | 0.356 | 0.276 | 0.864 | 0.786 | 0.679 | 0.899 | 0.714 | 0.729 | 0.657 | 0.529 | 0.698 | 0.707
LOU-NH91 | 0.754 | 0.751 | 0.741 | 0.798 | 0.556 | 0.631 | 0.601 | 0.531 | 0.972 | 0.807 | 0.787 | 0.713 | 0.578 | 0.901 | 0.788 | 0.813 | 0.732 | 0.679
NCI-H1915 | 0.717 | 0.631 | 0.61 | 0.548 | 0.516 | 0.332 | 0.343 | 0.369 | 1.08 | 1.11 | 1.11 | 1.08 | 1.06 | 0.244 | 0.227 | 0.265 | 0.231 | 0.24
NCI-H1395 | 0.374 | 0.375 | 0.397 | 0.396 | 0.327 | 0.462 | 0.411 | 0.404 | 0.969 | 1.02 | 1.02 | 0.972 | 0.998 | 0.511 | 0.487 | 0.442 | 0.523 | 0.494
NCI-H1734 | 0.521 | 0.433 | 0.462 | 0.312 | 0.182 | 0.332 | 0.338 | 0.255 | 0.825 | 0.913 | 0.169 | 0.903 | 0.771 | 0.58 | 0.576 | 0.679 | 0.612 | 0.572
NCI-H2405 | 0.763 | 0.704 | 0.809 | 0.747 | 0.649 | 0.395 | 0.417 | 0.312 | 1.01 | 0.81 | 1.08 | 1.07 | 0.99 | 0.835 | 0.816 | 0.895 | 0.948 | 0.837
NCI-H2087 | 1.32 | 1.46 | 1.28 | 1.24 | 0.815 | 0.501 | 0.436 | 0.33 | 1.15 | 0.886 | 0.181 | 1.38 | 1.11 | 0.497 | 0.567 | 0.644 | 0.613 | 0.639
